{(KFF)3K-eg1} = H-(KFF)3K peptide (K lysine, F phenylalanine) with eg1 linker (8-amino-3,6-dioxaoctanoyl), on the PNA N terminus (5' end); {NH2} = C-terminal amide
Columns and labels:
Format in all cases: cell-based, Acinetobacter baumannii
[1] = tested on: CRAB strain AC44; experiment: BPP-PNA MIC, broth microdilution
Experimental: (§1) MIC values were determined by broth microdilution according to standard protocols with a few modifications. An overnight bacterial cell culture was diluted to approximately 5 × 10^5 CFU/mL in non-cation-adjusted Muller Hinton Broth (MHB). Then, 180 µL bacterial solutions were dispensed into a low-bind 96-well plate (Thermo-Scientific, Roskilde, Denmark) along with 20 µL of BPP-PNA compound (BPP-PNA was serially diluted 2-fold from 16 to 0.5 µM in a 96-well plate). The plate was incubated in a Tecan Genios plate reader (GMI, Minnesota, Ramsey, USA) at 37 °C for 18 h with linear shaking, OD was measured every 20 min at 595 nm. […] The minimum bactericidal concentration (MBC) values were determined by plating 10 µL samples from the wells with no visible turbidity onto Mueller–Hinton agar plates. The MBC is determined the lowest concentration of BPP-PNA that reduces the viability of the initial bacterial inoculum by ≥99.9% (3-log reduction in CFU/mL). A minimum of two independent experiments (biological replicates) of the assay were conducted, and two technical replicates were used in each experiment for each bacterium, compound, and concentration.

[2] = tested on: CRAB strain AC2; experiment: BPP-PNA MIC, broth microdilution
Experimental: as §1

[3] = tested on: A. baumannii ATCC 19606; experiment: BPP-PNA MIC, broth microdilution; conditions: 37 °C, 18 h
Experimental: as §1

[4] = tested on: antibiotic resistant clinical isolate AC46; experiment: Minimum bactericidal concentration (MBC) assay; conditions: AC46, 24 h incubation, 1–8 μM
Experimental: as §1

[5] = tested on: A. baumannii SSI1104; experiment: BPP-PNA MIC, broth microdilution
Experimental: as §1, with “An overnight bacterial cell culture was diluted to approximately 5 × 10^5 CFU/mL in non-cation-adjusted Muller Hinton Broth (MHB).” left out

[6] = tested on: CRAB strain AC46; experiment: BPP-PNA MIC, broth microdilution
Experimental: as §1, with “An overnight bacterial cell culture was diluted to approximately 5 × 10^5 CFU/mL in non-cation-adjusted Muller Hinton Broth (MHB).” left out

[7] = tested on: CRAB strains; experiment: BPP-PNA MIC/MBC summarised over the panel of strains
Experimental: as §1

[8] = tested on: CRAB strain AC3; experiment: BPP-PNA MIC, broth microdilution; conditions: MHB without cation (Oxoid); 37 °C, 18 h
Experimental: as §1

[9] = tested on: CRAB strain AC4; experiment: BPP-PNA MIC, broth microdilution; conditions: MHB without cation (Oxoid); 37 °C, 18 h
Experimental: as §1

[10] = tested on: CRAB strain AC1; experiment: BPP-PNA MIC, broth microdilution; conditions: MHB without cation (Oxoid); 37 °C, 18 h
Experimental: as §1

[11] = tested on: CRAB strain AC5; experiment: BPP-PNA MIC, broth microdilution; conditions: MHB without cation (Oxoid); 37 °C, 18 h
Experimental: as §1

[12] = tested on: CRAB strain AC8; experiment: BPP-PNA MIC, broth microdilution; conditions: MHB without cation (Oxoid); 37 °C, 18 h
Experimental: as §1

[13] = tested on: CRAB strain AC7; experiment: BPP-PNA MIC, broth microdilution; conditions: MHB without cation (Oxoid); 37 °C, 18 h
Experimental: as §1

[14] = tested on: CRAB strain AC9; experiment: BPP-PNA MIC, broth microdilution; conditions: MHB without cation (Oxoid); 37 °C, 18 h
Experimental: as §1

[15] = tested on: CRAB strain AC6; experiment: BPP-PNA MIC, broth microdilution; conditions: MHB without cation (Oxoid); 37 °C, 18 h
Experimental: as §1

[16] = Table 4 (anti-rne), brand of medium not given, non-cation-adjusted MHB by method
[17] = MHB without cation (Oxoid), 37 °C, 18 h

In the case of “H-(KFF)3K-eg1-TTTCATGGGTG-NH2 (antisense; N-terminal (KFF)3K-eg1 peptide, C-terminal amide, backbone not given here, further chemistry not given here) [PNA 5656, anti-rne peptide-PNA conjugate, match, −5 to +6]”, the “MIC, AC44” value [1, 16] is reported as 2 µM, the “MIC, AC2” value [2, 16] is reported as 2 µM and the “MIC, ATCC 19606” value [3, 16] is reported as 2 µM. The “CFU reduction in MBC assay compared to mismatch control” value [4] was “very significant CFU reduction”, the “MIC, SSI 1104” value [5, 16] was 2 µM and the “MIC, AC46” value [6, 16] was 2 µM. The “concentration with bactericidal activity against carbapenem-resistant A. baumannii” value [7] was 4 µM, the “bactericidal concentration relative to MIC” value ([7]; CRAB strains) was 1–2 × MIC and the “MIC (complete growth inhibition) over the CRAB strains tested” value ([7]; several A. baumannii strains) was 2 µM. The “MIC of match PNA lower than mismatch control (mismatch discrimination)” value ([7]; strains of Table 2 (5612 vs 5615) or Table 4 (5656 vs 5822)) was “four-fold”.
“H-(KFF)3K-eg1-GAGTCCAGGAC-NH2 (all peptide nucleic acid (PNA), 5' {(KFF)3K-eg1}, 3' {NH2}) [PNA 5615, anti-ftsZ mismatch control of 5612]” was tested, and the “MIC, AC3” value [8] was 8 µM, the “MIC, AC4” value [9] was 16 µM and the “MIC, AC1” value [10] was 16 µM. The “MIC, AC44” value [1, 17] was 16 µM, the “MIC, AC5” value [11] was 16 µM and the “MIC, AC2” value [2, 17] was 16 µM. The “MIC, AC8” value [12] was 16 µM, the “MIC, ATCC 19606” value ([3]; MHB without cation (Oxoid)) was 8 µM and the “MIC, AC7” value [13] was 16 µM. For the same substance, the “MIC, AC9” value [14] was 16 µM, the “MIC, AC6” value [15] was 8 µM and the “MIC, SSI 1104” value [5, 17] was 16 µM. The “MIC, AC46” value [6, 17] was 16 µM and the MIC50 ([7]; over the CRAB and ATCC 19606 strains of Table 3, MHB without cation (Oxoid)) was 16 µM.

From PMC8071358, “Targeting of the Essential acpP, ftsZ, and rne Genes in Carbapenem-Resistant Acinetobacter baumannii by Antisense PNA Precision Antibacterials” (Biomedicines, 2021)
